Test [1] concerns HCV genotype 1a (H77 strain) replicon in HUH-7 cells. In words: HCV replicon luciferase reporter assay, genotype 1a. Type of test: cell-based. To be noted: Hepatitis C virus, Huh-7, 72 h, HCV genotype 1a replicon luciferase, 3 days incubation. In short, it runs like this:
(§1)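 Replicon inhibition for both genotypes was measured as Renilla luciferase signal (EnduRen, 7.5 μM final, 2 h) after 3-day, 37° C exposure of replicon-bearing HUH-7 cells in 4% FCS DMEM, 0.5% DMSO. The 1b construct carries S1179I; the 1a H77 construct carries P1496L and S2204I. Twenty-point, 3-fold dilutions were fitted four-parametrically for EC50, and CC50 was taken from multiplexed Cell Titer-Blue.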

Test [2] concerns HCV genotype 1b (Con1) replicon in HUH-7 cells. In words: HCV replicon luciferase reporter assay, genotype 1b. Type of test: cell-based. To be noted: Hepatitis C virus, Huh-7, 72 h, HCV genotype 1b replicon luciferase, 3 days incubation. The essentials: as §1

Where two headings read alike, the source gives them in different places.

Consider `CC[C@@H]1C[C@H](C)CC/C=C\[C@@H]2C[C@@]2(C(=O)NS(=O)(=O)C2(C)CC2)NC(=O)[C@@H]2C[C@@H](Oc3ncc(F)c4cc(OC)ccc34)CN2C(=O)[C@H]1NC(=O)OC(C)(C)C(F)(F)F` [Compound 4379], for which the EC50 (usually the concentration needed to bring the measured effect to its halfway point) in test [1] (GETYPE1A, read-out: LE_1a (EC50, range)) fell in the range of 1.01 to 5 nM; in test [2] (GETYPE1B, read-out: LE_1b (EC50, range)), 0.51 to 1 nM.
Regarding `COc1ccc2c(Cl)ncc(O[C@@H]3C[C@H]4C(=O)N[C@]5(C(=O)NS(=O)(=O)C6(CF)CC6)C[C@H]5/C=C\CC[C@@H](C)C[C@@H](C)[C@H](NC(=O)OC(C)(C)C)C(=O)N4C3)c2c1` [Compound 4380], the EC50 in test [1] (read-out: LE_1a (EC50, range)) is 1.01 to 5 nM; in test [2] (read-out: LE_1b (EC50, range)), 1.01 to 5 nM.
On to `CC[C@@H]1C[C@H](C)CC/C=C\[C@@H]2C[C@@]2(C(=O)NS(=O)(=O)C2(C)CC2)NC(=O)[C@@H]2C[C@@H](Oc3ncc(Cl)c4ccc(OC)cc34)CN2C(=O)[C@H]1NC(=O)OC(C)(C)C` [Compound 4381], for which the EC50 in test [1] (read-out: LE_1a (EC50, range)) fell in the range of 1.01 to 5 nM; in test [2] (read-out: LE_1b (EC50, range)), 0.51 to 1 nM.
For `COc1ccc2c(O[C@@H]3C[C@H]4C(=O)N[C@]5(C(=O)NS(=O)(=O)C6(CF)CC6)C[C@H]5/C=C\CC[C@@H](C)C[C@@H](C)[C@H](NC(=O)OC(C)(C)C)C(=O)N4C3)ncc(F)c2c1` [Compound 4382, tert-butyl ((2R,6S,7R,9R,13aS,14aR,16aS,Z)-2-((4-fluoro-6-methoxyisoquinolin-1-yl)oxy)-14a-(((1-(fluoromethyl)cyclopropyl)sulfonyl)carbamoyl)-7,9-dimethyl-5,16-dioxo-1,2,3,5,6,7,8,9,10,11,13a,14,14a,15,16,16a-hexadecahydrocyclopropa[e]pyrrolo[1,2-a][1,4]diazacyclopentadecin-6-yl)carbamate], the EC50 lay within 1.01 to 5 nM in test [1] (read-out: LE_1a (EC50, range)) and 0.51 to 1 nM in test [2] (read-out: LE_1b (EC50, range)).
Consider `CC[C@@H]1C[C@H](C)CC/C=C\[C@@H]2C[C@@]2(C(=O)NS(=O)(=O)C2(C)CC2)NC(=O)[C@@H]2C[C@@H](Oc3ncc(F)c4cc(OC)ccc34)CN2C(=O)[C@H]1NC(=O)OC(C)(C)C` [Compound 4383, tert-butyl ((2R,6S,7R,9R,13aS,14aR,16aS,Z)-7-ethyl-2-((4-fluoro-6-methoxyisoquinolin-1-yl)oxy)-9-methyl-14a-(((1-methylcyclopropyl)sulfonyl)carbamoyl)-5,16-dioxo-1,2,3,5,6,7,8,9,10,11,13a,14,14a,15,16,16a-hexadecahydrocyclopropa[e]pyrrolo[1,2-a][1,4]diazacyclopentadecin-6-yl)carbamate], for which the EC50 in test [1] (read-out: LE_1a (EC50, range)) lay in the range of 1.01 to 5 nM; in test [2] (read-out: LE_1b (EC50, range)), 0.51 to 1 nM.
The matching figures for `COc1ccc(-c2nc(O[C@@H]3C[C@H]4C(=O)N[C@]5(C(=O)NS(=O)(=O)C6CC6)C[C@H]5/C=C\CC[C@H](C)C[C@@H](C)[C@H](NC(=O)OC(C)(C)C)C(=O)N4C3)c3ccc(OC)cc3n2)cc1` [Compound 5001, tert-butyl ((2R,6S,7R,9S,13aS,14aR,16aS,Z)-14a-((cyclopropylsulfonyl)carbamoyl)-2-((7-methoxy-2-(4-methoxyphenyl)quinazolin-4-yl)oxy)-7,9-dimethyl-5,16-dioxo-1,2,3,5,6,7,8,9,10,11,13a,14,14a,15,16,16a-hexadecahydrocyclopropa[e]pyrrolo[1,2-a][1,4]diazacyclopentadecin-6-yl)carbamate]: less than 5.46 nM and less than 5.46 nM.
In the case of `COc1ccc(-c2nc(O[C@@H]3C[C@H]4C(=O)N[C@]5(C(=O)NS(=O)(=O)C6CC6)C[C@H]5/C=C\CC[C@@H](C)C[C@@H](C)[C@H](NC(=O)OC(C)(C)C)C(=O)N4C3)c3ccc(OC)cc3n2)cc1` [Compound 5002, tert-butyl ((2R,6S,7R,9R,13aS,14aR,16aS,Z)-14a-((cyclopropylsulfonyl)carbamoyl)-2-((7-methoxy-2-(4-methoxyphenyl)quinazolin-4-yl)oxy)-7,9-dimethyl-5,16-dioxo-1,2,3,5,6,7,8,9,10,11,13a,14,14a,15,16,16a-hexadecahydrocyclopropa[e]pyrrolo[1,2-a][1,4]diazacyclopentadecin-6-yl)carbamate], the EC50 in test [1] (read-out: LE_1a (EC50, range)) is less than 5.46 nM; in test [2] (read-out: LE_1b (EC50, range)), less than 5.46 nM.
With `COc1nnc(O[C@@H]2C[C@H]3C(=O)N[C@]4(C(=O)NS(=O)(=O)C5CC5)C[C@H]4/C=C\CC[C@H](C)C[C@@H](C)[C@H](NC(=O)OC(C)(C)C)C(=O)N3C2)c2ccccc12` [Compound 5003, tert-butyl ((2R,6S,7R,9S,13aS,14aR,16aS,Z)-14a-((cyclopropylsulfonyl)carbamoyl)-2-((4-methoxyphthalazin-1-yl)oxy)-7,9-dimethyl-5,16-dioxo-1,2,3,5,6,7,8,9,10,11,13a,14,14a,15,16,16a-hexadecahydrocyclopropa[e]pyrrolo[1,2-a][1,4]diazacyclopentadecin-6-yl)carbamate], the EC50 is 5.46 nM in test [1] (read-out: LE_1a (EC50)); 4.82 to 103 nM in test [1] (read-out: LE_1a (EC50, range)); 1.96 nM in test [2] (read-out: LE_1b (EC50)); less than 5.46 nM in test [2] (read-out: LE_1b (EC50, range)).
On to `COc1nnc(O[C@@H]2C[C@H]3C(=O)N[C@]4(C(=O)NS(=O)(=O)C5CC5)C[C@H]4/C=C\CC[C@@H](C)C[C@@H](C)[C@H](NC(=O)OC(C)(C)C)C(=O)N3C2)c2ccccc12` [Compound 5004, tert-butyl ((2R,6S,7R,9R,13aS,14aR,16aS,Z)-14a-((cyclopropylsulfonyl)carbamoyl)-2-((4-methoxyphthalazin-1-yl)oxy)-7,9-dimethyl-5,16-dioxo-1,2,3,5,6,7,8,9,10,11,13a,14,14a,15,16,16a-hexadecahydrocyclopropa[e]pyrrolo[1,2-a][1,4]diazacyclopentadecin-6-yl)carbamate], for which the EC50 is less than 5.46 nM in test [1] (read-out: LE_1a (EC50, range)) and less than 5.46 nM in test [2] (read-out: LE_1b (EC50, range)).
As for `COc1nnc(O[C@@H]2C[C@H]3C(=O)N[C@]4(C(=O)NS(=O)(=O)C5CC5)C[C@H]4/C=C\CC[C@H](C)C[C@@H](C)[C@H](NC(=O)OC(C)(C)C(F)(F)F)C(=O)N3C2)c2ccccc12` [Compound 5005, 1,1,1-trifluoro-2-methylpropan-2-yl((2R,6S,7R,9S,13aS,14aR,16aS,Z)-14a-((cyclopropylsulfonyl)carbamoyl)-2-((4-methoxyphthalazin-1-yl)oxy)-7,9-dimethyl-5,16-dioxo-1,2,3,5,6,7,8,9,10,11,13a,14,14a,15,16,16a-hexadecahydrocyclopropa[e]pyrrolo[1,2-a][1,4]diazacyclopentadecin-6-yl)carbamate], the EC50 is less than 5.46 nM in test [1] (read-out: LE_1a (EC50, range)) and less than 5.46 nM in test [2] (read-out: LE_1b (EC50, range)).
On to `COc1nnc(O[C@@H]2C[C@H]3C(=O)N[C@]4(C(=O)NS(=O)(=O)C5CC5)C[C@H]4/C=C\CC[C@@H](C)C[C@@H](C)[C@H](NC(=O)OC(C)(C)C(F)(F)F)C(=O)N3C2)c2ccccc12` [Compound 5006, 1,1,1-trifluoro-2-methylpropan-2-yl((2R,6S,7R,9R,13aS,14aR,16aS,Z)-14a-((cyclopropylsulfonyl)carbamoyl)-2-((4-methoxyphthalazin-1-yl)oxy)-7,9-dimethyl-5,16-dioxo-1,2,3,5,6,7,8,9,10,11,13a,14,14a,15,16,16a-hexadecahydrocyclopropa[e]pyrrolo[1,2-a][1,4]diazacyclopentadecin-6-yl)carbamate], for which the EC50 in test [1] (read-out: LE_1a (EC50, range)) is less than 5.46 nM; in test [2] (read-out: LE_1b (EC50, range)), less than 5.46 nM.
For `COc1nnc(O[C@@H]2C[C@H]3C(=O)N[C@]4(C(=O)NS(=O)(=O)C5(C)CC5)C[C@H]4/C=C\CC[C@H](C)C[C@@H](C)[C@H](NC(=O)OC(C)(C)C(F)(F)F)C(=O)N3C2)c2ccccc12` [Compound 5007, 1,1,1-trifluoro-2-methylpropan-2-yl((2R,6S,7R,9S,13aS,14aR,16aS,Z)-2-((4-methoxyphthalazin-1-yl)oxy)-7,9-dimethyl-14a-(((1-methylcyclopropyl)sulfonyl)carbamoyl)-5,16-dioxo-1,2,3,5,6,7,8,9,10,11,13a,14,14a,15,16,16a-hexadecahydrocyclopropa[e]pyrrolo[1,2-a][1,4]diazacyclopentadecin-6-yl)carbamate], the EC50 in test [1] (read-out: LE_1a (EC50, range)) was less than 5.46 nM; in test [2] (read-out: LE_1b (EC50, range)), less than 5.46 nM.
For `COc1nnc(O[C@@H]2C[C@H]3C(=O)N[C@]4(C(=O)NS(=O)(=O)C5(C)CC5)C[C@H]4/C=C\CC[C@@H](C)C[C@@H](C)[C@H](NC(=O)OC(C)(C)C(F)(F)F)C(=O)N3C2)c2ccccc12` [Compound 5008, 1,1,1-trifluoro-2-methylpropan-2-yl((2R,6S,7R,9R,13aS,14aR,16aS,Z)-2-((4-methoxyphthalazin-1-yl)oxy)-7,9-dimethyl-14a-(((1-methylcyclopropyl)sulfonyl)carbamoyl)-5,16-dioxo-1,2,3,5,6,7,8,9,10,11,13a,14,14a,15,16,16a-hexadecahydrocyclopropa[e]pyrrolo[1,2-a][1,4]diazacyclopentadecin-6-yl)carbamate], the EC50 was less than 5.46 nM in test [1] (read-out: LE_1a (EC50, range)) and less than 5.46 nM in test [2] (read-out: LE_1b (EC50, range)).
With `[2H]C([2H])([2H])C(OC(=O)N[C@@H]1C(=O)N2C[C@H](Oc3nnc(OC)c4ccccc34)C[C@H]2C(=O)N[C@]2(C(=O)NS(=O)(=O)C3(C)CC3)C[C@H]2/C=C\CC[C@H](C)C[C@H]1C)(C([2H])([2H])[2H])C(F)(F)F` [Compound 5009], the EC50 was less than 5.46 nM in test [1] (read-out: LE_1a (EC50, range)) and less than 5.46 nM in test [2] (read-out: LE_1b (EC50, range)).
Regarding `[2H]C([2H])([2H])C(OC(=O)N[C@@H]1C(=O)N2C[C@H](Oc3nnc(OC)c4ccccc34)C[C@H]2C(=O)N[C@]2(C(=O)NS(=O)(=O)C3(C)CC3)C[C@H]2/C=C\CC[C@@H](C)C[C@H]1C)(C([2H])([2H])[2H])C(F)(F)F` [Compound 5010], the concentration giving a half-maximal response (EC50) was less than 5.46 nM in test [1] (read-out: LE_1a (EC50, range)) and less than 5.46 nM in test [2] (read-out: LE_1b (EC50, range)).
